Test results as given in patent publication US9550763B2, “Heterocyclic ring and carbocyclic derivative” (Shionogi & Co., Ltd., priority 2012, dated 2017).

What follows are compounds tested against human P2X3 receptor (Homo sapiens (Human), UniProt P56373) (assay: Evaluation of human P2X3 receptor inhibitory activity (Test Example 1-1, FDSS 3000, 96-well, 50 nM ATP)). Settings: human P2X3 receptor in C6BU-1 cells; Test Example 1-1 (compounds I-001 to I-300).
Format: cell-based
Method in brief: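 C6BU-1 cells stably expressing human P2X3, loaded with 4 μM Fluo-3-AM (pH 7.5), preincubated 5 min with compound before 50 nM ATP challenge; fluorescence followed 4 min on FDSS 3000. IC50 derived from peak/baseline fluorescence ratio, no-compound as 0% and buffer-instead-of-ATP as 100% inhibition.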

human P2X3 receptor, sequence (P56373 whole entry): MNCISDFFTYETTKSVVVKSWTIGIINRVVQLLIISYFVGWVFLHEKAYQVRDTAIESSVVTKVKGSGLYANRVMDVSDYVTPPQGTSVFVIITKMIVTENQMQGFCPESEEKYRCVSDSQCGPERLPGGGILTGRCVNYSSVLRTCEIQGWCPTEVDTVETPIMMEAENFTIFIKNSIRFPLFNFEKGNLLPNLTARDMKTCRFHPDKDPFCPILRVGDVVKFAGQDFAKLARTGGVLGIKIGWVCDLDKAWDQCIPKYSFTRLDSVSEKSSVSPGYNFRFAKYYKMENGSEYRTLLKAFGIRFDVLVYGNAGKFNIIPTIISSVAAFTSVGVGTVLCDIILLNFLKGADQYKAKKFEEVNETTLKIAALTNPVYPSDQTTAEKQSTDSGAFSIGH

First: CCC(=O)Nc1c[nH]/c(=N\c2ccc(Oc3cccc(C#N)n3)cc2)n(Cc2ccc(Cl)cc2)c1=O [Compound I-006]
Second: CCc1c[nH]/c(=N\c2ccc(Oc3cccc(C#N)n3)cc2)n(Cc2ccc(Cl)cc2)c1=O [Compound I-129]
The IC50 of the first is 12-fold lower: 5 nM for the first, 61 nM for the second. The first is the more potent here.

Compared with `O=C(Nc1cnc(Nc2ccc(Oc3ccc(F)cn3)cc2)n(Cc2ccc(Cl)cc2)c1=O)C1CCOCC1` [Compound I-133], `O=C(Nc1cnc(Nc2ccc(Oc3ncccc3F)cc2)n(Cc2ccc(Cl)cc2)c1=O)C1CCOCC1` [Compound I-132] is 2-fold higher in IC50: 1 nM for the first, 2 nM for the second. The first is the more potent here.

Going from `CCOC(=O)c1cn(Cc2ccc(Cl)cc2)c(Nc2ccc3oc(CC)c(C)c3c2)nc1=O` [Compound I-015] to `CCc1oc2ccc(Nc3nc(=O)c(C(=O)O)cn3Cc3ccc(Cl)cc3)cc2c1C` [Compound I-017], the IC50 rises from 160 nM to 401 nM (2.5-fold). The first is the more potent here.

Compared with `CNC(=O)c1c[nH]/c(=N\c2ccc(Oc3nc(C)ns3)cc2)n(Cc2ccc(Cl)cc2)c1=O` [Compound I-257], `Cc1nsc(Oc2ccc(/N=c3\[nH]cc(NC(=O)C4CCOCC4)c(=O)n3Cc3ccc(Cl)cc3)cc2)n1` [Compound I-225] is 6.8-fold lower in IC50: 41 nM for the first, 6 nM for the second.

`CCOC(=O)c1c[nH]/c(=N\c2ccc(Oc3ncccc3F)cc2)n(Cc2ccc(Cl)cc2)c1=O` [Compound I-107] and `NC(=O)c1c[nH]/c(=N\c2ccc(Oc3ccc(F)cn3)cc2)n(Cc2ccc(Cl)cc2)c1=O` [Compound I-142] are within 1.5-fold of each other in IC50: 29 nM for the first, 26 nM for the second.

Compared with `CCc1oc2ccc(Nc3nc(=O)c(C(=O)NC(CC)CC)cn3Cc3ccc(Cl)cc3)cc2c1C` [Compound I-031], `CCc1oc2ccc(Nc3nc(=O)c(C(=O)NC4CCOCC4)cn3Cc3ccc(Cl)cc3)cc2c1C` [Compound I-021] is 2.7-fold lower in IC50: 54 nM for the first, 20 nM for the second. The second is the more potent here.

Compared with `N#Cc1cccc(Oc2ccc(Nc3cc(=O)[nH]c(=O)n3Cc3ccc(Cl)cc3)cc2)n1` [Compound I-064], `CCn1c(=O)cc(Nc2ccc(Oc3cccc(C(=O)O)n3)cc2)n(Cc2ccc(Cl)cc2)c1=O` [Compound I-040] is 12-fold lower in IC50: 36 nM for the first, 3 nM for the second.

Going from `CCOC(=O)c1cnc(Nc2ccc(Oc3cccc(C(=O)O)n3)cc2)n(Cc2ccc(Cl)cc2)c1=O` [Compound I-055] to `O=C(O)c1cccc(Oc2ccc(Nc3ncc(C(=O)O)c(=O)n3Cc3ccc(Cl)cc3)cc2)n1` [Compound I-050], the IC50 rises from 2 nM to 67 nM (34-fold).

First: CN/C(=N\C#N)Nc1c[nH]/c(=N\c2ccc(Oc3ccon3)cc2)n(Cc2ccc(Cl)cc2)c1=O [Compound I-243]
Second: CCOC(=O)/N=C(\NC)Nc1c[nH]/c(=N\c2ccc(Oc3ccon3)cc2)n(Cc2ccc(Cl)cc2)c1=O [Compound I-238]
The IC50 of the first is 1.8-fold lower: 557 nM for the first, 990 nM for the second. The first is the more potent here.

`O=C(Nc1c[nH]/c(=N\c2ccc(Oc3ccon3)cc2)n(Cc2ccc(Cl)cc2)c1=O)c1ccncc1` [Compound I-266] and `O=C(Nc1c[nH]/c(=N\c2ccc(Oc3ccon3)cc2)n(Cc2ccc(Cl)cc2)c1=O)c1ccno1` [Compound I-223] are within 1.5-fold of each other in IC50: 68 nM for the first, 78 nM for the second.

Going from `O=C(NC1CCOCC1)c1cn(Cc2ccc(Cl)cc2)c(Nc2ccc(Oc3ccc(F)cn3)cc2)nc1=O` [Compound I-158] to `NC(=O)c1cccc(Oc2ccc(Nc3nc(=O)c(C(=O)NC4CCOCC4)cn3Cc3ccc(Cl)cc3)cc2)n1` [Compound I-217], the IC50 falls from 11 nM to 5 nM (2.2-fold).

Compared with `Cc1ccc(Oc2ccc(Nc3nc(=O)c(C(=O)NCC(=O)N(C)C)cn3Cc3ccc(Cl)cc3)cc2)nn1` [Compound I-298], `CCn1c(=O)cc(Nc2ccc(Oc3nc(C)c(C(=O)O)s3)cc2)n(Cc2ccc(Cl)cc2)c1=O` [Compound I-041] is 7.7-fold lower in IC50: 23 nM for the first, 3 nM for the second.

First: CCc1oc2ccc(/N=c3\[nH]cc(CNC4CCOCC4)c(=O)n3Cc3ccc(Cl)cc3)cc2c1C [Compound I-049]
Second: CCc1oc2ccc(Nc3ncc(C(=O)NC4CCOCC4)c(=O)n3Cc3ccc(Cl)cc3)cc2c1C [Compound I-019, 1-(4-chlorobenzyl)-2-(2-ethyl-3-methylbenzofuran-5-ylamino)-5-(tetrahydro-2H-pyran-4-ylcarbamoyl)pyrimidin-6(1H)-one]
The IC50 of the first is 1.7-fold higher: 225 nM for the first, 135 nM for the second. The second is the more potent here.

First: CCC(=O)Nc1c[nH]/c(=N\c2ccc(Oc3cnc(C#N)cn3)cc2)n(Cc2ccc(Cl)cc2)c1=O [Compound I-138]
Second: O=C(Nc1c[nH]/c(=N\c2ccc(Oc3ccon3)cc2)n(Cc2ccc(Cl)cc2)c1=O)c1cn[nH]c1 [Compound I-235]
The IC50 of the first is 56-fold lower: 4 nM for the first, 225 nM for the second. The first is the more potent here.

First: O=c1c(CO)c[nH]/c(=N\c2ccc(Oc3cccc(F)n3)cc2)n1Cc1ccc(Cl)cc1 [Compound I-037]
Second: Cc1noc(-c2cn(Cc3ccc(Cl)cc3)/c(=N/c3ccc(Oc4cccc(F)n4)cc3)[nH]c2=O)n1 [Compound I-190, 1-(4-chlorobenzyl)-2-[4-(6-fluoro-2-pyridyloxy)phenylamino]-5-(3-methyl-1,2,4-oxadiazol-5-yl)pyrimidin-4(1H)-one]
The IC50 of the first is 5.7-fold higher: 34 nM for the first, 6 nM for the second. The second is the more potent here.

First: Cc1cnc(-c2c[nH]/c(=N\c3ccc(Oc4ccon4)cc3)n(Cc3ccc(Cl)cc3)c2=O)o1 [Compound I-294]
Second: O=c1c(NC(=O)[C@H]2C[C@H](F)C2)c[nH]/c(=N\c2ccc(Oc3ccon3)cc2)n1Cc1ccc(Cl)cc1 [Compound I-218]
The IC50 of the first is 4.9-fold higher: 84 nM for the first, 17 nM for the second.

Compared with `CCc1c[nH]/c(=N\c2ccc(Oc3cccc(C#N)n3)c(C)c2)n(Cc2ccc(Cl)cc2)c1=O` [Compound I-130], `CCOC(=O)c1c[nH]/c(=N\c2ccc(Oc3ccc(F)cn3)c(F)c2)n(Cc2ccc(Cl)cc2)c1=O` [Compound I-206] is 1.5-fold higher in IC50: 32 nM for the first, 48 nM for the second. The first is the more potent here.

First: CCn1c(=O)cc(Nc2ccc(Oc3cncc(C(N)=O)c3)cc2)n(Cc2ccc(Cl)cc2)c1=O [Compound I-001]
Second: CCn1c(=O)cc(Nc2ccc(Oc3cccc(C(=O)OC)c3)cc2)n(Cc2ccc(Cl)cc2)c1=O [Compound I-008, 1-(4-chlorobenzyl)-3-ethyl-6-[4-(3-methoxycarbonylphenoxy)phenylamino]pyrimidin-2,4(1H,3H)-dione]
The IC50 of the first is 3.5-fold lower: 11 nM for the first, 38 nM for the second.

First: CCn1c(=O)cc(Nc2cc(C)c(Oc3cccc(C(=O)O)c3)cn2)n(Cc2ccc(Cl)cc2)c1=O [Compound I-203]
Second: CCn1c(=O)cc(Nc2ccc(Oc3cccc(C(=O)O)n3)cn2)n(Cc2ccc(Cl)cc2)c1=O [Compound I-125]
The IC50 of the first is 15-fold higher: 336 nM for the first, 23 nM for the second. The second is the more potent here.

Going from `O=C(O)c1c[nH]/c(=N\c2ccc(Oc3ccc(F)cn3)c(F)c2)n(Cc2ccc(Cl)cc2)c1=O` [Compound I-207] to `CCCn1c(=O)cc(Nc2ccc(Oc3cccc(C(=O)O)n3)c(C)n2)n(Cc2ccc(Cl)cc2)c1=O` [Compound I-188], the IC50 falls from 252 nM to 6 nM (42-fold).

Compared with `Cc1cc(Nc2ncc(NC(=O)C3CCOCC3)c(=O)n2Cc2ccc(Cl)cc2)ccc1Oc1cccc(F)n1` [Compound I-135], `CCc1oc2ccc(Nc3ncc(NC(=O)C4CCOCC4)c(=O)n3Cc3ccc(Cl)cc3)cc2c1C` [Compound I-077] is 96-fold higher in IC50: 2 nM for the first, 191 nM for the second.

Compared with `CCOC(=O)c1sc(Oc2ccc(Nc3cc(=O)n(CC)c(=O)n3Cc3ccc(Cl)cc3)cc2)nc1C` [Compound I-036], `C[C@@H](Cn1c(=O)cc(Nc2ccc(Oc3ncccc3F)cc2)n(Cc2ccc(Cl)cc2)c1=O)C(=O)O` [Compound I-119] is 2.8-fold lower in IC50: 22 nM for the first, 8 nM for the second. The second is the more potent here.

First: O=C(NC1CCOCC1)c1cn(Cc2ccccc2F)c(Nc2ccc(Oc3cccc(F)n3)cc2)nc1=O [Compound I-284]
Second: CCc1oc2ccc(Nc3ncc(NC(=O)C4CCOCC4)c(=O)n3C[C@H]3CC[C@H](C)CC3)cc2c1C [Compound I-082]
The IC50 of the first is 4.7-fold higher: 42 nM for the first, 9 nM for the second. The second is the more potent here.
